Common to all, as to experiment: Test B flooded paddy test
Common to all, as to format: in vivo

For experiment [1], the system named is barnyardgrass (Echinochloa crus-galli). The following applies: Echinochloa crus-galli, 250 g ai/ha, Flood, read-out: Barnyardgrass plant response rating. The gist of the method: (§1)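 Compound goes directly into floodwater once pots are flooded 3 cm above soil, targeting plants at two leaves; the water depth is then held for the test duration. Plants sit 13–15 d in a greenhouse and are rated visually, 100 denoting complete control.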

Experiment [2] concerns ducksalad (Heteranthera limosa). The following applies: Heteranthera limosa, 250 g ai/ha, Flood, read-out: Ducksalad plant response rating. The gist of the method:
as §1

Another experiment relates to rice (Oryra sativa). As to conditions: Oryza sativa, 250 g ai/ha, Flood, read-out: Rice plant response rating. The gist of the method: as §1
Experiment [3] deals with sedge, umbrella (small-flower umbrella sedge, Cyperus difformis). The following applies: Cyperus difformis, 250 g ai/ha, Flood. An outline of the steps:
as §1

Where [4] appears, read: 0 to 100 scale where 0 is no effect and 100 is complete control.
The mark [5] stands for this setting: 0 to 100 scale where 0 is no effect and 100 is complete control, read-out: Sedge, Umbrella plant response rating.
The mark [6] stands for this setting: scale of 0 to 100 where 0 is no effect and 100 is complete control.
Where [7] appears, read: scale of 0 to 100 where 0 is no effect and 100 is complete control, read-out: Sedge, Umbrella plant response rating.

Drawing on US12077503B2, “Substituted cyclic amides and their use as herbicides” (FMC CORPORATION, priority 2015, dated 2024), this text covers pest or weed control for 29 compounds.

Read-outs that look alike come from different tables or passages of the source.

Take `Cc1cccc([C@H]2CN(C)C(=O)[C@@H]2C(=O)Nc2cccc(F)c2C)c1` [Compound 1233]: the pest or weed control at 250 g/ha in experiment [1] (setting [4]) was determined as 80%; in experiment [2] (setting [4]) it was 100%; in the experiment with rice (Oryra sativa) (setting [4]), 15%; in experiment [3] (setting [5]), 0%.
With `CS(=O)(=O)c1ccccc1NC(=O)[C@H]1C(=O)N(C2CC2)CC[C@@H]1c1cccc(C(F)(F)F)c1` [Compound 927], the pest or weed control at 250 g/ha (in experiment [1] (setting [6]); in experiment [2] (setting [6]); in the experiment on rice (Oryra sativa) (setting [6]); in experiment [3] (setting [7])) was 0% throughout.
Consider `CCc1cc(CC)cc([C@H]2CN(C)C(=O)[C@@H]2C(=O)Nc2ccccc2C(F)(F)F)c1` [Compound 737], for which the pest or weed control at 250 g/ha (in experiment [1] (setting [6]); in experiment [2] (setting [6]); with rice (Oryra sativa) (setting [6]); in experiment [3] (setting [7])) was 0% throughout.
With `CN1C[C@H](c2ccc(C#N)cc2)[C@@H](C(=O)Nc2ccc(F)c(F)c2F)C1=O` [Compound 1229], the pest or weed control at 250 g/ha in experiment [1] (setting [4]) came to 50%; in experiment [2] (setting [4]) it was 90%; in the experiment on rice (Oryra sativa) (setting [4]) it was 0%; in experiment [3] (setting [5]), 0%.
Consider `CCc1ccc([C@H]2CNC(=S)[C@@H]2C(=O)Nc2cccc(F)c2F)cc1` [Compound 762], for which the pest or weed control at 250 g/ha stood at 0% in experiment [1] (setting [6]), 98% in experiment [2] (setting [6]), 0% in the experiment on rice (Oryra sativa) (setting [6]) and 0% in experiment [3] (setting [7]).
With `CN1C[C@H](c2cc(F)cc(F)c2)[C@@H](C(=O)Nc2c(F)cccc2F)C1=O` [Compound 759], the pest or weed control at 250 g/ha (in experiment [1] (setting [6]); in experiment [2] (setting [6]); in the experiment on rice (Oryra sativa) (setting [6]); in experiment [3] (setting [7])) was 0% throughout.
For `O=C1NC[C@H](c2cc(F)c(F)c(F)c2)[C@H]1C(=O)Nc1ccc(F)c(F)c1F` [Compound 756], the pest or weed control at 250 g/ha in experiment [1] (setting [6]) was 50%; in experiment [2] (setting [6]) it was 100%; in the experiment on rice (Oryra sativa) (setting [6]) it was 0%; in experiment [3] (setting [7]) it was 0%.
As for `Cc1cc([C@H]2CN(C)C(=O)[C@@H]2C(=O)Nc2ccccc2F)no1` [Compound 1194], the pest or weed control at 250 g/ha (in experiment [1] (setting [4]); in experiment [2] (setting [4]); in the experiment on rice (Oryra sativa) (setting [4]); in experiment [3] (setting [5])) was 0% throughout.
In the case of `CSc1ccccc1NC(=O)[C@H]1C(=O)N(C)C[C@@H]1c1ccc(F)c(C)c1` [Compound 1312], the pest or weed control at 250 g/ha in experiment [1] (setting [4]) was found to be 40%; in experiment [2] (setting [4]), 100%; with rice (Oryra sativa) (setting [4]) it was 0%; in experiment [3] (360 h, visually evaluated after 13 to 15 d, read-out: Plant response rating, Sedge, Umbrella (0 to 100 scale where 0 is no effect and 100 is complete control)), 0%.
In the case of `Cc1nc([C@H]2CN(C)C(=O)[C@@H]2C(=O)Nc2ccccc2F)cs1` [Compound 1280], the pest or weed control at 250 g/ha (in experiment [1] (setting [4]); in experiment [2] (setting [4]); in the experiment with rice (Oryra sativa) (setting [4]); in experiment [3] (setting [5])) was 0% each time.
Regarding `Cc1cc(F)cc([C@H]2CNC(=O)[C@@H]2C(=O)Nc2ccccc2S(C)(=O)=O)c1` [Compound 1307], the pest or weed control at 250 g/ha in experiment [1] (setting [4]) stood at 30%; in experiment [2] (setting [4]) it was 100%; in the experiment with rice (Oryra sativa) (setting [4]), 20%; in experiment [3] (setting [5]), 0%.
For the compound `O=C1NC[C@H](c2ccc3c(c2)OCO3)[C@H]1C(=O)Nc1ccccc1F` [Compound 767], the pest or weed control at 250 g/ha was 0% in experiment [1] (setting [6]), 100% in experiment [2] (setting [6]), 0% with rice (Oryra sativa) (setting [6]) and 0% in experiment [3] (setting [7]).
Regarding `CN1CC[C@H](c2ccc(C(F)(F)F)cc2)[C@@H](C(=O)Nc2cccc(Cl)c2F)C1=O` [Compound 1228], the pest or weed control at 250 g/ha in experiment [1] (setting [4]) came out at 50%; in experiment [2] (setting [4]) it was 100%; in the experiment with rice (Oryra sativa) (setting [4]), 30%; in experiment [3] (setting [5]), 0%.
Turning to `O=C1NC[C@H](c2cccc(C(F)(F)F)c2)[C@H]1C(=O)Nc1ccccc1C1CC1` [Compound 748], the pest or weed control at 250 g/ha in experiment [1] (setting [6]) amounted to 0%; in experiment [2] (setting [6]), 75%; with rice (Oryra sativa) (setting [6]), 25%; in experiment [3] (setting [7]), 0%.
In the case of `O=C1NC[C@H](c2cccc3c2OC(F)(F)O3)[C@H]1C(=O)Nc1ccccc1F` [Compound 754], the pest or weed control at 250 g/ha worked out at 0% in experiment [1] (setting [6]), 40% in experiment [2] (setting [6]), 0% with rice (Oryra sativa) (setting [6]) and 0% in experiment [3] (setting [7]).
As for `CSc1ccccc1NC(=O)[C@H]1C(=O)N(C)CC[C@@H]1c1ccc2c(c1)OC(F)(F)O2` [Compound 814], the pest or weed control at 250 g/ha in experiment [1] (setting [6]) turned out to be 0%; in experiment [2] (setting [6]) it was 50%; in the experiment with rice (Oryra sativa) (setting [6]) it was 0%; in experiment [3] (setting [7]), 60%.
As to `CN1CC[C@H](c2ccc(C(F)(F)F)cc2)[C@@H](C(=O)Nc2ccccc2C(F)(F)F)C1=O` [Compound 1224], the pest or weed control at 250 g/ha is 0% in experiment [1] (setting [4]), 70% in experiment [2] (setting [4]), 0% with rice (Oryra sativa) (setting [4]) and 0% in experiment [3] (setting [5]).
For the compound `Cc1ccc([C@H]2CCN(C)C(=O)[C@@H]2C(=O)Nc2cccc(Cl)c2F)cc1` [Compound 1223], the pest or weed control at 250 g/ha is 80% in experiment [1] (setting [4]), 90% in experiment [2] (setting [4]), 30% with rice (Oryra sativa) (setting [4]) and 0% in experiment [3] (setting [5]).
On to `O=C1NC[C@H](c2cscn2)[C@H]1C(=O)Nc1ccccc1F` [Compound 752], for which the pest or weed control at 250 g/ha (in experiment [1] (setting [6]); in experiment [2] (setting [6]); with rice (Oryra sativa) (setting [6]); in experiment [3] (setting [7])) was 0% throughout.
With `O=C(Nc1cccc(Cl)c1F)[C@H]1C(=O)N(C2CC2)CC[C@@H]1c1cccc(C(F)(F)F)c1` [Compound 926], the pest or weed control at 250 g/ha (in experiment [1] (setting [6]); in experiment [2] (setting [6]); in the experiment on rice (Oryra sativa) (setting [6]); in experiment [3] (setting [7])) was 0% each time.
Consider `CN1C[C@H](c2cc(F)cc(F)c2)[C@@H](C(=O)Nc2ccc(F)cc2C(F)(F)F)C1=O` [Compound 758], for which the pest or weed control at 250 g/ha in experiment [1] (setting [6]) worked out at 45%; in experiment [2] (setting [6]) it was 100%; with rice (Oryra sativa) (setting [6]), 0%; in experiment [3] (setting [7]), 0%.
Regarding `CN1C[C@H](c2cc(F)c(C(F)(F)F)c(F)c2)[C@@H](C(=O)Nc2ccccc2F)C1=O` [Compound 899], the pest or weed control at 250 g/ha in experiment [1] (setting [6]) was 55%; in experiment [2] (setting [6]), 10%; in the experiment with rice (Oryra sativa) (setting [6]) it was 0%; in experiment [3] (setting [7]) it was 0%.
In the case of `Cc1cc(F)cc([C@H]2CNC(=O)[C@@H]2C(=O)Nc2cccc(F)c2F)c1` [Compound 1309], the pest or weed control at 250 g/ha in experiment [1] (setting [4]) came out at 60%; in experiment [2] (setting [4]), 100%; in the experiment with rice (Oryra sativa) (setting [4]), 20%; in experiment [3] (setting [5]), 0%.
Turning to `O=C1NC[C@H](c2ccc3c(c2)OCO3)[C@H]1C(=O)Nc1cccc(F)c1F` [Compound 731], the pest or weed control at 250 g/ha in experiment [1] (setting [6]) was determined as 60%; in experiment [2] (setting [6]) it was 100%; in the experiment on rice (Oryra sativa) (setting [6]), 20%; in experiment [3] (setting [7]) it was 0%.
With `COc1c(F)ccc([C@H]2CNC(=O)[C@@H]2C(=O)Nc2ccccc2S(C)(=O)=O)c1Cl` [Compound 916], the pest or weed control at 250 g/ha in experiment [1] (setting [6]) turned out to be 0%; in experiment [2] (setting [6]) it was 100%; in the experiment on rice (Oryra sativa) (setting [6]), 0%; in experiment [3] (setting [7]) it was 0%.
With `CSc1ccccc1NC(=O)[C@H]1C(=O)NC[C@@H]1c1cc(C)cc(F)c1` [Compound 1306], the pest or weed control at 250 g/ha in experiment [1] (setting [4]) came to 20%; in experiment [2] (setting [4]), 100%; in the experiment with rice (Oryra sativa) (setting [4]), 0%; in experiment [3] (setting [5]), 0%.
Take `COc1cc([C@H]2CN(C)C(=O)[C@@H]2C(=O)Nc2ccccc2SC)cc(OC)c1OC` [Compound 1218]: the pest or weed control at 250 g/ha in experiment [1] (setting [4]) was determined as 0%; in experiment [2] (setting [4]), 40%; in the experiment on rice (Oryra sativa) (setting [4]), 0%; in experiment [3] (setting [5]), 0%.
For `O=C1NC[C@H](c2ccc(C(F)(F)F)cc2)C1C(=O)Nc1c(F)cccc1CO` (some centres unmarked) [Compound 1243], the pest or weed control at 250 g/ha (in experiment [1] (setting [4]); in experiment [2] (setting [4]); in the experiment with rice (Oryra sativa) (setting [4]); in experiment [3] (setting [5])) was 0% each time.
As to `Cc1cccc([C@H]2CN(C)C(=O)[C@@H]2C(=O)Nc2ccc(F)c(F)c2F)c1` [Compound 1231], the pest or weed control at 250 g/ha in experiment [1] (setting [4]) stood at 85%; in experiment [2] (setting [4]), 100%; with rice (Oryra sativa) (setting [4]), 0%; in experiment [3] (setting [5]) it was 0%.
